4 compounds from patent US9295732B2, “Conjugated TLR7 and/or TLR8 and TLR2 polycationic agonists” (CAYLA, priority 2013, dated 2016) can be followed below.

One test deals with T1, murine TLR7 (Mus musculus, UniProt P58681).
T1 construct: host or cells: HEK293 (HEK-Blue™ mTLR7)
T1 sequence (P58681 27-1050): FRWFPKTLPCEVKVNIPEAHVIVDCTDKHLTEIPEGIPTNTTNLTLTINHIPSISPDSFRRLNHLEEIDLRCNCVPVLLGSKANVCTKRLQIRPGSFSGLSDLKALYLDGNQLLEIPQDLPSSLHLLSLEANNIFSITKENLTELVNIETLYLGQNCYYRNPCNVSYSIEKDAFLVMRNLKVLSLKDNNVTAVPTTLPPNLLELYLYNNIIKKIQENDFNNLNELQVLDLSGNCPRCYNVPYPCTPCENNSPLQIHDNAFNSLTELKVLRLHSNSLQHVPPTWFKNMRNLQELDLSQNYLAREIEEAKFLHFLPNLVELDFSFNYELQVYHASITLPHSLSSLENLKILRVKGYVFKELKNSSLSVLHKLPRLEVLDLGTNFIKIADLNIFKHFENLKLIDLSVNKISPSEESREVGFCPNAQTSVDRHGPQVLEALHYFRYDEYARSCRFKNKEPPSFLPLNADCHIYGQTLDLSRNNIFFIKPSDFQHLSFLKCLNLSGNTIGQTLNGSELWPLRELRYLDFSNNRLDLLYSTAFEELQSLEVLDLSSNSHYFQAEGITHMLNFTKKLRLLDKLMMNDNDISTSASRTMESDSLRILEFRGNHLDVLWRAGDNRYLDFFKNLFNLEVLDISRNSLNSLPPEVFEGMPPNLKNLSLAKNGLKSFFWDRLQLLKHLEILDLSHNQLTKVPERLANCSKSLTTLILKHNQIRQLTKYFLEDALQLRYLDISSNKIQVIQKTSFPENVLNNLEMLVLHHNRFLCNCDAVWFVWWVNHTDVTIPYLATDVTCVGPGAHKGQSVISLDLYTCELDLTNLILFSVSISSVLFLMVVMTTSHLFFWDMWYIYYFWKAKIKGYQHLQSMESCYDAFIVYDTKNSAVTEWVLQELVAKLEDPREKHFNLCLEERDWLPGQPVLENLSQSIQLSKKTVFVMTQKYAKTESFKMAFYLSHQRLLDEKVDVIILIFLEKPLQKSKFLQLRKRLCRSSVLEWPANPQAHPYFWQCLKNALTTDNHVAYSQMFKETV
Kind of test: HEK-Blue mTLR7 NF-κB/AP-1 SEAP reporter assay. The note with it: HEK-Blue mTLR7 cells, 10 μg/mL to 10 pg/ml, 24 hours, OD at 655 nm, FIG. 2. Format: cell-based. Here is the method: (§1) Cell-based assays were carried out using TLR7 and TLR2 reporter cell lines (InvivoGen). The reporter cell lines are engineered HEK293 cells, a human embryonic kidney cell line (ATCC, CRL-1573) that stably express either murine TLR7 (HEK-Blue™ mTLR7) or human TLR7 (HEK-Blue™ hTLR7) or human TLR2 (HEK-Blue™ hTLR2) with an NF-κB-inducible secreted embryonic alkaline phosphatase (SEAP) as the reporter gene. The SEAP reporter gene is under the control of the NF-κB and AP-1-inducible promoter, which, upon treatment with a corresponding TLR ligand and activation of NF-κB and AP-1, induces the production of SEAP. Detection of SEAP is measured following culturing cells in HEK-Blue™ Detection media (InvivoGen). HEK-Blue™ Detection contains a SEAP substrate that when hydrolysed by SEAP produces a colorimetric change allowing for detection of SEAP as the protein is secreted. […] These assays were carried out using RAW-Blue™ Cells (InvivoGen), derived from RAW 264.7 mouse leukemic monocyte macrophage cell line (ATCC, CRL 2278) stably overexpressing a NF-B/AP-1 inducible SEAP reporter constructs.
(§2) To perform the assay, cells were seeded on 96 well microliter plates at 50,000 or 100,000 cells per well for HEK-Blue™ Cells and RAW-Blue™ Cells respectively, and cultured at 37° C. in the presence of the conjugated compounds The TLR7-TLR2 polyamine molecules were prepared as follows: First, stock solutions of the conjugated compounds of the invention were prepared in ethanol or water to a concentration of 10 mg/ml.
(§3) The working dilutions of the conjugated TLR7-TLR2 polyamine agonists made up in water or PBS were directly added to the reporter cell lines at a final concentration ranging from 10 μg/mL to 10 pg/ml and incubated at 37° C. for 24 hours. After 24 hours of incubation, the effect on reporter gene activity was determined by reading the OD at 655 nm using iMark™ Microplate Reader (BIO-RAD).
(A reporter such as luciferase makes a cellular process visible.)

Another test has as its target T2, human TLR7 (Homo sapiens, UniProt Q9NYK1).
T2 construct: host or cells: HEK293 (HEK-Blue™ hTLR7)
T2 sequence (Q9NYK1 27-1049): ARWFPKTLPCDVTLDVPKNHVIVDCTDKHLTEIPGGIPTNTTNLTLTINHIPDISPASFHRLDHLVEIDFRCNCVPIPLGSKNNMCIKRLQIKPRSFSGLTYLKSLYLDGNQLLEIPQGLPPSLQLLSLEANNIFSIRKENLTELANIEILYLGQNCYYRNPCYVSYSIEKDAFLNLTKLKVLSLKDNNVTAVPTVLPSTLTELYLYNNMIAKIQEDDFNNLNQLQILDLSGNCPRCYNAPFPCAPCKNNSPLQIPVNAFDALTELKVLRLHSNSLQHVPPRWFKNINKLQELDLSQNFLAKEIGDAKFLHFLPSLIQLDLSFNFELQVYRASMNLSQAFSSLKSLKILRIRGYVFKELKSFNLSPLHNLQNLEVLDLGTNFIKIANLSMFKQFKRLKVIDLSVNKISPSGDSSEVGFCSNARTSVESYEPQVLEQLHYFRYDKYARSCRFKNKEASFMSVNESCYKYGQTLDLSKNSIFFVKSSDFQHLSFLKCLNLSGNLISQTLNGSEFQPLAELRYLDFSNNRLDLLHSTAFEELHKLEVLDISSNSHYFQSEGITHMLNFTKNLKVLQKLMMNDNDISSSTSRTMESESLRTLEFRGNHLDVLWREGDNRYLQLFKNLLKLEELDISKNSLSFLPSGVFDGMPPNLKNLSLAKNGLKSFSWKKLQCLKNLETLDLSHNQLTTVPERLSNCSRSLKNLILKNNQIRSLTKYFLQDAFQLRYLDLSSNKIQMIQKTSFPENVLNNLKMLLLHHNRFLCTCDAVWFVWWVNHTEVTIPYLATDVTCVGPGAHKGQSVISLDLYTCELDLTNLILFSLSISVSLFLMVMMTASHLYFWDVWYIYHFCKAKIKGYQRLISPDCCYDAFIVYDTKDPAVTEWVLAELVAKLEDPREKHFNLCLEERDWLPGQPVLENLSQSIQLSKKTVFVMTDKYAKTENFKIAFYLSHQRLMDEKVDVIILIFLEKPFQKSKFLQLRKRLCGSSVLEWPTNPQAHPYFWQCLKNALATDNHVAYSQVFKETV
In words: HEK-Blue hTLR7 NF-κB/AP-1 SEAP reporter assay. Conditions: HEK-Blue hTLR7 cells, 10 μg/mL to 10 pg/ml, 24 hours, OD at 655 nm, FIG. 1. Type of test: cell-based. Here is the method:
as §1, §2, §3

A further test deals with plasmid DNA (pDNA). In words: Gel shift (mobility shift) assay of pDNA complexation. Format: binding. Conditions: pDNA:molecule ratio 3:24 (w:w), 0.8% agarose gel, compared to pDNA alone. The procedure: Then, 10 μl of pDNA:TLR7-TLR2 polyamine molecule complexes and 2 μl of charge buffer were mixed and loaded into wells of a 0.8% agarose gel. Samples were migrated through the gel in TAE buffer under 135 voltage for 21 mins and the migration of the pDNA was visualized following ethidium bromide staining under UV light. The ability of TLR7-TLR2 polyamine molecules to complex/associate with the pDNA was identified by partial or complete retardation of the pDNA migration toward the anode in the gel compared to pDNA alone. […] Ethidium bromide intercalation of pDNA in complex with molecules allowed visualization of complexed pDNA as a smear in the wells of the gel.

In another test the target is T3, human TLR2 (Homo sapiens, UniProt O60603).
T3 construct: host or cells: HEK293 (HEK-Blue™ hTLR2)
T3 sequence (O60603 21-784): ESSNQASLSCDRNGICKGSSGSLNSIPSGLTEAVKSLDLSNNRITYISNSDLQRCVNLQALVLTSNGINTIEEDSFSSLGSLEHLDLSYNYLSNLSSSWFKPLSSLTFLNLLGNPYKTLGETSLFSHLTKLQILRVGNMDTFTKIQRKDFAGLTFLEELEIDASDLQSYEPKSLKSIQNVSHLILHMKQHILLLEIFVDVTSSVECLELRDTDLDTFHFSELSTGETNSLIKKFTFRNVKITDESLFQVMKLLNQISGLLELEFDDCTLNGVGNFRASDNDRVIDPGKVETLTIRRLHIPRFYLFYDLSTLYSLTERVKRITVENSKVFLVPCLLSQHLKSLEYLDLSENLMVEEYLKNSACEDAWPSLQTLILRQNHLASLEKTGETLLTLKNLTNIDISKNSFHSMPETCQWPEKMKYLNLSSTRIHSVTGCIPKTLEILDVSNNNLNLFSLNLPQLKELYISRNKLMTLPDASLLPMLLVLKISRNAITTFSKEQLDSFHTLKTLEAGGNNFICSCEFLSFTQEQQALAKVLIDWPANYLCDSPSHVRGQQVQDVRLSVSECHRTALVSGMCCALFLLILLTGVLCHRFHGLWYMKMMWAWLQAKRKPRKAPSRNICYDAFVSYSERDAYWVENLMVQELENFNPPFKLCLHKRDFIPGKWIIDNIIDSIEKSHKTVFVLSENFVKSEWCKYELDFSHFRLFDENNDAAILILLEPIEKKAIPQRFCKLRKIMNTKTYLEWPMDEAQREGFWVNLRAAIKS
In words: HEK-Blue hTLR2 NF-κB/AP-1 SEAP reporter assay. Format: cell-based. Conditions: HEK-Blue hTLR2 cells, 10 μg/mL to 10 pg/ml, 24 hours, OD at 655 nm, FIG. 3. The procedure: as §1, §2, §3

For test [1], the system named is endogenous TLR2 and TLR7 in RAW-Blue™ Cells. In words: RAW-Blue Cells NF-κB/AP-1 SEAP reporter assay. Format: cell-based, mouse. The note with it: 24 hours, OD at 655 nm, FIG. 4. The procedure: as §1, §2, §3

With `CCCCCCCCCCCCCCCC(=O)N[C@@H](CSCC(COC(=O)CCCCCCCCCCCCCCC)OC(=O)CCCCCCCCCCCCCCC)C(=O)N[C@@H](CO)C(=O)N[C@@H](CCCCN)C(=O)N[C@@H](CCCCNC(=O)c1ccc(Cn2c(O)nc3c(N)nc(NCCCC)nc32)cc1)C(=O)N[C@@H](CCCCN)C(=O)N[C@@H](CCCCN)C(=O)O` (stereo partly drawn) [CL536, (2S,5S,8S,11S,14S,17R)-8-(4-(4-((6-amino-2-(butylamino)-8-hydroxy-9H-purin-9-yl)methyl)benzamido)butyl)-2,5,11-tris(4-aminobutyl)-14-(hydroxymethyl)-4,7,10,13,16,24-hexaoxo-17-palmitamido-21-(palmitoyloxy)-23-oxa-19-thia-3,6,9,12,15-pentaazanonatriacontan-1-oic acid], the “ability to activate mTLR7” value on murine TLR7 is “activate mTLR7”. The “ability to activate hTLR7” value at human TLR7 is listed as “activate hTLR7”. Also, in the test on plasmid DNA (pDNA), the “ability to complex pDNA (retardation of pDNA migration in agarose gel)” value (shortened to “ability to complex pDNA”) is reported as “inability to migrate through an agarose gel”. Also, at human TLR2, the “ability to activate hTLR2” value was “activate hTLR2”. Further, the “ability to activate endogenous TLR2 and TLR7 in RAW-Blue Cells” value (shortened to “ability … in RAW-Blue Cells”) in test [1] was “activate endogenous TLR2 and TLR7”.

As for `CCCCCCCCCCCCCCCC(=O)N[C@@H](CSCC(COC(=O)CCCCCCCCCCCCCCC)OC(=O)CCCCCCCCCCCCCCC)C(=O)N[C@@H](CO)C(=O)N[C@@H](CCCCNC(=O)c1ccc(Cn2c(O)nc3c(N)nc(NCCCC)nc32)cc1)C(=O)N[C@@H](CCCCN)C(=O)N[C@@H](CCCCN)C(=O)N[C@@H](CCCCN)C(=O)O` (stereo partly drawn) [CL537, (2S,5S,8S,11S,14S,17R)-11-(4-(4-((6-amino-2-(butylamino)-8-hydroxy-9H-purin-9-yl)methyl)benzamido)butyl)-2,5,8-tris(4-aminobutyl)-14-(hydroxymethyl)-4,7,10,13,16,24-hexaoxo-17-palmitamido-21-(palmitoyloxy)-23-oxa-19-thia-3,6,9,12,15-pentaazanonatria contan-1-oic acid], the “ability to activate mTLR7” value at murine TLR7 is “activate mTLR7”. Also, the “ability to activate hTLR7” value at human TLR7 is reported as “activate hTLR7”. Also, the “ability to complex pDNA” value with plasmid DNA (pDNA) is “inability to migrate through an agarose gel”. The “ability to activate hTLR2” value on human TLR2 is given as “activate hTLR2”. The “ability … in RAW-Blue Cells” value in test [1] is “activate endogenous TLR2 and TLR7”.

`CCCCCCCCCCCCCCCC(=O)OCC(CSC[C@H](N)C(=O)N[C@@H](CO)C(=O)N[C@@H](CCCCNC(=O)c1ccc(Cn2c(O)nc3c(N)nc(NCCCC)nc32)cc1)C(=O)N[C@@H](CCCCN)C(=O)N[C@@H](CCCCN)C(=O)N[C@@H](CCCCN)C(=O)O)OC(=O)CCCCCCCCCCCCCCC` (stereo partly drawn) [CL533, (2S,5S,8S,11S,14S,17R)-17-amino-11-(4-(4-((6-amino-2-(butylamino)-8-hydroxy-9H-purin-9-yl)methyl)benzamido)butyl)-2,5,8-tris(4-aminobutyl)-14-(hydroxylmethyl)-4,7,10,13,16,24-hexaoxo-21-(palmitoyloxy)-23-oxa-19-thia-3,6,9,12,15-pentaazanonatria contan-1-oic acid]: the “ability to activate mTLR7” value on murine TLR7 is recorded as “activate mTLR7”. Also, the “ability to activate hTLR7” value on human TLR7 was “activate hTLR7”. Moreover, the “ability to complex pDNA” value in the test with plasmid DNA (pDNA) was “inability to migrate through an agarose gel”. In addition, the “ability to activate hTLR2” value on human TLR2 is given as “activate hTLR2”. For the same compound, in test [1], the “ability … in RAW-Blue Cells” value was “activate endogenous TLR2 and TLR7”.

For the compound `CCCCCCCCCCCCCCCC(=O)OCC(CSC[C@H](N)C(=O)Nc1ccc(Cn2c(O)nc3c(N)nc(NCCCC)nc32)cc1)OC(=O)CCCCCCCCCCCCCCC` (stereo partly shown) [CL401, reference compound], the “ability to complex pDNA” value in the test on plasmid DNA (pDNA) is reported as “lacks the ability to complex pDNA”.
